# Results: PubChem BioAssay (NCI)
#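 Tested at 5 concentrations; 48 h exposure; 96-well plates; endpoints linearly interpolated, else capped at highest concentration. Abbreviation: GI50, concentration required for 50% inhibition of growth. TGI is the concentration that stops growth completely.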
# Assays:
# Assay in all cases: NCI anticancer screen, dose series, 48 h
# [1] = tested on: RXF 393 renal
# [2] = tested on: OVCAR-4 ovarian
# [3] = tested on: OVCAR-8 ovarian
# [4] = tested on: HS 578T breast
# [5] = tested on: PC-3 prostate
# [6] = tested on: OVCAR-3 ovarian
# [7] = tested on: MALME-3M melanoma
# [8] = tested on: COLO 205 colon
# [9] = tested on: 786-0 renal
# [10] = tested on: HCT-116 colon
# [11] = tested on: SW-620 colon
# [12] = tested on: MOLT-4 leukemia
# [13] = tested on: MDA-MB-231 breast
# [14] = tested on: BT-549 breast
# [15] = tested on: SK-MEL-5 melanoma
# [16] = tested on: ACHN renal
# [17] = tested on: HT29 colon
# [18] = tested on: SF-539 CNS
# [19] = tested on: UACC-257 melanoma
# [20] = tested on: U251 CNS
# [21] = tested on: SF-268 CNS
# [22] = tested on: T-47D breast
# [23] = tested on: UACC-62 melanoma
# [24] = tested on: UO-31 renal
# [25] = tested on: M14 melanoma
# [26] = tested on: TK-10 renal
# [27] = tested on: A498 renal
# [28] = tested on: SK-MEL-28 melanoma
# [29] = tested on: MDA-MB-435
# [30] = tested on: HOP-92 NSCLC
# [31] = tested on: SF-295 CNS
# [32] = tested on: RPMI-8226 leukemia
# [33] = tested on: SR leukemia
# [34] = tested on: DU-145 prostate
# [35] = tested on: HOP-62 NSCLC
# [36] = tested on: NCI-H23 lung
# [37] = tested on: HCC-2998 colon
# [38] = tested on: MCF7 breast
# [39] = tested on: NCI-H226 lung
# [40] = tested on: IGROV1 ovarian
# [41] = tested on: SNB-19 CNS
# [42] = tested on: NCI-H460 lung
# [43] = tested on: SK-MEL-2 melanoma
# [44] = tested on: KM12 colon
# [45] = tested on: HL-60(TB) leukemia
# [46] = tested on: NCI/ADR-RES ovarian
# [47] = tested on: SNB-75 CNS
# [48] = tested on: SN12C renal
# [49] = tested on: SK-OV-3 ovarian
# [50] = tested on: HCT-15 colon
# [51] = tested on: LOX IMVI melanoma
# [52] = tested on: OVCAR-5 ovarian
# [53] = tested on: A549 NSCLC
# [54] = tested on: EKVX NSCLC
# [55] = tested on: K-562 leukemia
# [56] = tested on: CAKI-1 renal
compound,measurement,setting,value
COc1ccc2c(c1)OCC1c3cc(OC)ccc3OC21 (configuration not stated),GI50,[1],58 µM
same,TGI,[1],> 100 µM
same,GI50,[2],39.2 µM
same,TGI,[2],> 100 µM
same,GI50,[3],80.3 µM
same,TGI,[3],> 100 µM
same,GI50,[4],> 100 µM
same,TGI,[4],> 100 µM
same,GI50,[5],91.2 µM
same,TGI,[5],> 100 µM
same,GI50,[6],44.2 µM
same,TGI,[6],> 100 µM
same,GI50,[7],> 100 µM
same,TGI,[7],> 100 µM
same,GI50,[8],38.2 µM
same,TGI,[8],> 100 µM
same,GI50,[9],> 100 µM
same,TGI,[9],> 100 µM
same,GI50,[10],47.5 µM
same,TGI,[10],> 100 µM
same,GI50,[11],> 100 µM
same,TGI,[11],> 100 µM
same,GI50,[12],8.94 µM
same,TGI,[12],61.1 µM
same,GI50,[13],46.4 µM
same,TGI,[13],> 100 µM
same,GI50,[14],34.4 µM
same,TGI,[14],> 100 µM
same,GI50,[15],28.4 µM
same,TGI,[15],86.1 µM
same,GI50,[16],53.1 µM
same,TGI,[16],> 100 µM
same,GI50,[17],34.9 µM
same,TGI,[17],> 100 µM
same,GI50,[18],97.7 µM
same,TGI,[18],> 100 µM
same,GI50,[19],> 100 µM
same,TGI,[19],> 100 µM
same,GI50,[20],58 µM
same,TGI,[20],> 100 µM
same,GI50,[21],50.5 µM
same,TGI,[21],> 100 µM
same,GI50,[22],35.4 µM
same,TGI,[22],> 100 µM
same,GI50,[23],51 µM
same,TGI,[23],> 100 µM
same,GI50,[24],39 µM
same,TGI,[24],> 100 µM
same,GI50,[25],39 µM
same,TGI,[25],> 100 µM
same,GI50,[26],> 100 µM
same,TGI,[26],> 100 µM
same,GI50,[27],63.1 µM
same,TGI,[27],> 100 µM
same,GI50,[28],91.2 µM
same,TGI,[28],> 100 µM
same,GI50,[29],50.8 µM
same,TGI,[29],> 100 µM
same,GI50,[30],60.3 µM
same,TGI,[30],> 100 µM
same,GI50,[31],20.4 µM
same,TGI,[31],> 100 µM
same,GI50,[32],21.5 µM
same,TGI,[32],> 100 µM
same,GI50,[33],1.44 µM
same,TGI,[33],29.6 µM
same,GI50,[34],> 100 µM
same,TGI,[34],> 100 µM
same,GI50,[35],95 µM
same,TGI,[35],> 100 µM
same,GI50,[36],36.2 µM
same,TGI,[36],> 100 µM
same,GI50,[37],5.42 µM
same,TGI,[37],58 µM
same,GI50,[38],38.7 µM
same,TGI,[38],> 100 µM
same,GI50,[39],27.3 µM
same,TGI,[39],> 100 µM
same,GI50,[40],49.5 µM
same,TGI,[40],> 100 µM
same,GI50,[41],> 100 µM
same,TGI,[41],> 100 µM
same,GI50,[42],32.1 µM
same,TGI,[42],> 100 µM
same,GI50,[43],94.3 µM
same,TGI,[43],> 100 µM
same,GI50,[44],43.3 µM
same,TGI,[44],> 100 µM
same,GI50,[45],4.93 µM
same,TGI,[45],> 100 µM
same,GI50,[46],32 µM
same,TGI,[46],> 100 µM
same,GI50,[47],47.3 µM
same,TGI,[47],> 100 µM
same,GI50,[48],74.3 µM
same,TGI,[48],> 100 µM
same,GI50,[49],> 100 µM
same,TGI,[49],> 100 µM
same,GI50,[50],44.9 µM
same,TGI,[50],> 100 µM
same,GI50,[51],45.9 µM
same,TGI,[51],> 100 µM
same,GI50,[52],80.1 µM
same,TGI,[52],> 100 µM
same,GI50,[53],89.1 µM
same,TGI,[53],> 100 µM
same,GI50,[54],32.6 µM
same,TGI,[54],> 100 µM
same,GI50,[55],56.7 µM
same,TGI,[55],> 100 µM
same,GI50,[56],29.5 µM
same,TGI,[56],> 100 µM
